What was measured:
Assay type in all cases: physicochemical
[1] = Absorption and fluorescence spectra, extinction coefficient, fluorescence quantum yield
Experimental: Absorption spectra were recorded on a Hewlett-Packard 8453 diode array UV-Vis spectrophotometer (Agilent Technologies, Inc., Santa Clara, Calif.), and fluorescence measurements were taken on a SPEX® Fluorolog 2 spectrofluorometer (HORIBA Jobin Yvon, Inc., Edison, N.J.). Melting points are not corrected. NMR spectra were obtained on a Varian Mercury 300 MHz (Varian, Inc., Palo Alto, Calif.) or on a Bruker 300 MHz DRX 300 spectrometer (Bruker Biospin Corp., Billerica, Mass.). Mass spectra were obtained on a Hewlett-Packard 1100 high-performance liquid chromatograph equipped with an 1100 mass selective detector (MS-ESI) (Agilent Technologies, Inc.).
With decreasing solvent polarity, the absorption maximum of dyes 1a-b, 2a-d shifted to longer wavelengths, and the intensity of the transition increased (Table 10, FIG. 11).
The SCRF/VSCRF predicted emission energies and the solute dipole moments before and after the vertical emission process are given in Table 16. The dipole moments of AI-BA(4) and AI-SO(4) are further decreased on the S1 surface after geometry relaxation (in MeOH solution), and then increased during the S1→S0 transition. This observation is consistent with the blue shifts of the emission bands of AI-BA(4) and AI-SO(4) with increasing solvent polarity from C6H6 to MeOH. By contrast, the dipole moment of I-SO further decreases after S1 state geometry relaxation, and then decreases during the vertical emission process. This observation also is in agreement with the red shift of the I-SO emission band with increasing solvent polarity from C6H6 to MeOH. Similarly to the absorption case, a negligible red shift (ΔEem=0.017 eV) was predicted for the emission band of I-TBA with increasing solvent polarity. A small red shift from C6H6 to DMF (with ΔEem=0.020 eV, or Δλmax=6 nm) is observed. The nearly equal emission energy observed in C6H6 and MeOH can again result in the explicit interactions between the solute and solvent molecules.

[2] = Photobleaching under constant illumination from a halogen tungsten lamp filtered through glass; details: MeOH; for kph(rel) (relative rate of photobleaching): with respect to standard I-TBA in MeOH
Description: The photostability of dyes can be important for applications in living cells. The mechanism of photobleaching for merocyanines of varying structure has been examined See Toutchkine et al., J. Am. Chem. Soc. 125:4132-4145 (2003). The photostability of the presently disclosed dyes was characterized by exposing them to constant illumination from a halogen tungsten lamp filtered through glass. This broad spectrum light source provided essentially equal intensity throughout the spectral range where the dyes absorb and where they would be irradiated in vivo (about 600 nm to about 650 nm).

[3] = Relative rate of reaction with chemically generated singlet oxygen in DMSO; details: 2.5 mM, 1O2 from 1,4-dimethylnaphtalene-1,4-endoperoxide
Experimental: The bleaching rates for the dyes differed by two orders of magnitude. The relative rate constants kr (rel) for product formation during reaction with singlet oxygen were measured by comparing the percent conversions for dyes dissolved in DMSO containing a fixed amount of ^1O2 (2.5 mM solutions; ^1O2 generated by decomposition of 1,4-dimethylnaphtalene-1,4-endoperoxide). The rates were generally higher for dyes with a polar ground state (1a, 2a, 2b, 2d) than for the dyes with their ground state at the “cyanine limit” (3, 4). […] Olefins without allylic hydrogens react with singlet oxygen to form dioxetanes. Dioxetanes are unstable and decompose, to form two carbonyl compounds.

## CC1(C)c2ccccc2-[n+]2ccc(/C=C/C3=C([O-])c4ccccc4S3(=O)=O)cc21 [AI-SO(2)]
[1]; Table 10, BuOH
  Observed absorption (ε): (120000)
  Observed absorption λmax: 554 nm
[1]; Table 10, C6H6
  Observed absorption (ε): (235000)
  Observed absorption λmax: 570 nm
[1]; Table 10, CH2Cl2
  Observed absorption (ε): (218000)
  Observed absorption λmax: 561 nm
[1]; Table 10, CH3CN
  Observed absorption (ε): (149000)
  Observed absorption λmax: 549 nm
[1]; Table 10, DMF
  Observed absorption (ε): (157000)
  Observed absorption λmax: 556 nm
[1]; Table 10, DMSO
  Observed absorption (ε): (126000)
  Observed absorption λmax: 555 nm
[1]; Table 10, EtOH
  Observed absorption (ε): (111000)
  Observed absorption λmax: 549 nm
[1]; Table 10, MeOH
  Observed absorption (ε): (92000)
  Observed absorption λmax: 542 nm
[1]; Table 10, OcOH
  Observed absorption (ε): (150000)
  Observed absorption λmax: 559 nm
[1]; Table 10, i-PrOH
  Observed absorption (ε): (132000)
  Observed absorption λmax: 553 nm
[1]; Table 15, BuOH
  Observed emission (Φ): 0.16
  Observed emission λmax: 567 nm
[1]; Table 15, C6H6
  Observed emission (Φ): 0.02
  Observed emission λmax: 577 nm
[1]; Table 15, CH2Cl2
  Observed emission (Φ): 0.06
  Observed emission λmax: 571 nm
[1]; Table 15, CH3CN
  Observed emission (Φ): 0.06
  Observed emission λmax: 561 nm
[1]; Table 15, DMF
  Observed emission (Φ): 0.16
  Observed emission λmax: 567 nm
[1]; Table 15, DMSO
  Observed emission (Φ): 0.24
  Observed emission λmax: 567 nm
[1]; Table 15, EtOH
  Observed emission (Φ): 0.09
  Observed emission λmax: 563 nm
[1]; Table 15, MeOH
  Observed emission (Φ): 0.05
  Observed emission λmax: 561 nm
[1]; Table 15, OcOH
  Observed emission (Φ): 0.21
  Observed emission λmax: 569 nm
[1]; Table 15, i-PrOH
  Observed emission (Φ): 0.13
  Observed emission λmax: 565 nm
[2]
  kph * 10^6 (absolute rate of photobleaching): 0.7 s^−1
  kph(rel) (relative rate of photobleaching): 2.1
[3]
  kr(rel) (relative rate constants for product formation during reaction with singlet oxygen produced chemically): 20.3

## Cn1c([O-])c(/C=C/C=C/c2cc[n+]3c(c2)C(C)(C)c2ccccc2-3)c(=O)n(C)c1=O [AI-BA]
[1]; C6H6
  Absorption energy Eabs Exp: 1.873 eV
  Emission energy Eem Exp: 1.851 eV
[1]; MeOH
  Absorption energy Eabs Exp: 2.120 eV
  Emission energy Eem Exp: 2.006 eV
[1]; Table 10, BuOH
  Observed absorption (ε): (154000)
  Observed absorption λmax: 615 nm
[1]; Table 10, C6H6
  Observed absorption (ε): ±201000)
  Observed absorption λmax: 662 nm
[1]; Table 10, CH2Cl2
  Observed absorption (ε): (224000)
  Observed absorption λmax: 647 nm
[1]; Table 10, CH3CN
  Observed absorption (ε): (141000)
  Observed absorption λmax: 621 nm
[1]; Table 10, DMF
  Observed absorption (ε): (146000)
  Observed absorption λmax: 625 nm
[1]; Table 10, DMSO
  Observed absorption (ε): (122000)
  Observed absorption λmax: 617 nm
[1]; Table 10, EtOH
  Observed absorption (ε): (104000)
  Observed absorption λmax: 604 nm
[1]; Table 10, MeOH
  Observed absorption (ε): (83000)
  Observed absorption λmax: 585 nm
[1]; Table 10, OcOH
  Observed absorption (ε): (143000)
  Observed absorption λmax: 628 nm
[1]; Table 10, i-PrOH
  Observed absorption (ε): (132000)
  Observed absorption λmax: 614 nm
[1]; Table 12, C6H6
  Absorption Exp wavelength: 662 nm
[1]; Table 12, MeOH
  Absorption Exp wavelength: 585 nm
[1]; Table 15, BuOH
  Observed emission (Φ): 0.29
  Observed emission λmax: 654 nm
[1]; Table 15, C6H6
  Observed emission (Φ): 0.01
  Observed emission λmax: 670 nm
[1]; Table 15, CH2Cl2
  Observed emission (Φ): 0.03
  Observed emission λmax: 664 nm
[1]; Table 15, CH3CN
  Observed emission (Φ): 0.05
  Observed emission λmax: 652 nm
[1]; Table 15, DMF
  Observed emission (Φ): 0.26
  Observed emission λmax: 658 nm
[1]; Table 15, DMSO
  Observed emission (Φ): 0.23
  Observed emission λmax: 657 nm
[1]; Table 15, EtOH
  Observed emission (Φ): 0.19
  Observed emission λmax: 651 nm
[1]; Table 15, MeOH
  Observed emission (Φ): 0.52
  Observed emission λmax: 618 nm
[1]; Table 15, OcOH
  Observed emission (Φ): 0.64
  Observed emission λmax: 656 nm
[1]; Table 15, i-PrOH
  Observed emission (Φ): 0.22
  Observed emission λmax: 652 nm
[1]; blue shift of absorption band C6H6 to MeOH
  Eabs(MeOH)-Eabs(C6H6) Exp: 0.247 eV
[2]
  kph * 10^6 (absolute rate of photobleaching): 68 s^−1
  kph(rel) (relative rate of photobleaching): 200
[3]
  kr(rel) (relative rate constants for product formation during reaction with singlet oxygen produced chemically): 25.6
